Drawing on US8969386B2, “Modulators of CFTR” (Vertex Pharmaceuticals Incorporated, priority 2007, dated 2015), this text covers EC50 and Emax for 21 compounds.

The target of this test is T1, ΔF508-CFTR (Homo sapiens, UniProt P13569, DEL508-508).
T1 construct: expressed in transfected cells
The test can be described thus: ΔF508-CFTR correction, membrane potential optical (FRET/VIPR) assay. In kind it is cell-based. To be noted: NIH3T3 mouse fibroblasts stably expressing ΔF508-CFTR; for Emax: read-out: % Efficacy. An excerpt: Assays for Detecting and Measuring ΔF508-CFTR Correction Properties of Compounds
Membrane potential optical methods for assaying ΔF508-CFTR modulation properties of compounds
The optical membrane potential assay utilized voltage-sensitive FRET sensors described by Gonzalez and Tsien (See Gonzalez, J. E. and R. Y. Tsien (1995) “Voltage sensing by fluorescence resonance energy transfer in single cells” Biophys J 69(4): 1272-80, and Gonzalez, J. E. and R. Y. Tsien (1997) “Improved indicators of cell membrane potential that use fluorescence resonance energy transfer” Chem Biol 4(4): 269-77) in combination with instrumentation for measuring fluorescence changes such as the Voltage/Ion Probe Reader (VIPR) (See Gonzalez, J. E., K. Oades, et al. (1999) “Cell-based assays and instrumentation for screening ion-channel targets” Drug Discov Today 4(9): 431-439).
These voltage sensitive assays are based on the change in fluorescence resonant energy transfer (FRET) between the membrane-soluble, voltage-sensitive dye, DiSBAC2(3), and a fluorescent phospholipid, CC2-DMPE, which is attached to the outer leaflet of the plasma membrane and acts as a FRET donor. Changes in membrane potential (Vm) cause the negatively charged DiSBAC2(3) to redistribute across the plasma membrane and the amount of energy transfer from CC2-DMPE changes accordingly. The changes in fluorescence emission were monitored using VIPR™ II, which is an integrated liquid handler and fluorescent detector designed to conduct cell-based screens in 96- or 384-well microtiter plates.
1. Identification of Correction Compounds
To identify small molecules that correct the trafficking defect associated with ΔF508-CFTR; a single-addition HTS assay format was developed. The cells were incubated in serum-free medium for 16 hrs at 37° C. in the presence or absence (negative control) of test compound. As a positive control, cells plated in 384-well plates were incubated for 16 hrs at 27° C. to “temperature-correct” ΔF508-CFTR. The cells were subsequently rinsed 3× with Krebs Ringers solution and loaded with the voltage-sensitive dyes. To activate ΔF508-CFTR, 10 μM forskolin and the CFTR potentiator, genistein (20 μM), were added along with Cl^−-free medium to each well. The addition of Cl^−-free medium promoted Cl^− efflux in response to ΔF508-CFTR activation and the resulting membrane depolarization was optically monitored using the FRET-based voltage-sensor dyes.
NIH3T3 mouse fibroblasts stably expressing ΔF508-CFTR are used for optical measurements of membrane potential. The cells are maintained at 37° C. in 5% CO2 and 90% humidity in Dulbecco's modified Eagle's medium supplemented with 2 mM glutamine, 10% fetal bovine serum, 1×NEAA, β-ME, 1× pen/strep, and 25 mM HEPES in 175 cm^2 culture flasks. For all optical assays, the cells were seeded at 30,000/well in 384-well matrigel-coated plates and cultured for 2 hrs at 37° C. before culturing at 27° C. for 24 hrs for the potentiator assay. For the correction assays, the cells are cultured at 27° C. or 37° C. with and without compounds for 16-24 hours Electrophysiological Assays for assaying ΔF508-CFTR modulation properties of compounds

pEC50: −log10 of the molar value.

T1 sequence (P13569 with tags, fused parts or gaps DEL508-508): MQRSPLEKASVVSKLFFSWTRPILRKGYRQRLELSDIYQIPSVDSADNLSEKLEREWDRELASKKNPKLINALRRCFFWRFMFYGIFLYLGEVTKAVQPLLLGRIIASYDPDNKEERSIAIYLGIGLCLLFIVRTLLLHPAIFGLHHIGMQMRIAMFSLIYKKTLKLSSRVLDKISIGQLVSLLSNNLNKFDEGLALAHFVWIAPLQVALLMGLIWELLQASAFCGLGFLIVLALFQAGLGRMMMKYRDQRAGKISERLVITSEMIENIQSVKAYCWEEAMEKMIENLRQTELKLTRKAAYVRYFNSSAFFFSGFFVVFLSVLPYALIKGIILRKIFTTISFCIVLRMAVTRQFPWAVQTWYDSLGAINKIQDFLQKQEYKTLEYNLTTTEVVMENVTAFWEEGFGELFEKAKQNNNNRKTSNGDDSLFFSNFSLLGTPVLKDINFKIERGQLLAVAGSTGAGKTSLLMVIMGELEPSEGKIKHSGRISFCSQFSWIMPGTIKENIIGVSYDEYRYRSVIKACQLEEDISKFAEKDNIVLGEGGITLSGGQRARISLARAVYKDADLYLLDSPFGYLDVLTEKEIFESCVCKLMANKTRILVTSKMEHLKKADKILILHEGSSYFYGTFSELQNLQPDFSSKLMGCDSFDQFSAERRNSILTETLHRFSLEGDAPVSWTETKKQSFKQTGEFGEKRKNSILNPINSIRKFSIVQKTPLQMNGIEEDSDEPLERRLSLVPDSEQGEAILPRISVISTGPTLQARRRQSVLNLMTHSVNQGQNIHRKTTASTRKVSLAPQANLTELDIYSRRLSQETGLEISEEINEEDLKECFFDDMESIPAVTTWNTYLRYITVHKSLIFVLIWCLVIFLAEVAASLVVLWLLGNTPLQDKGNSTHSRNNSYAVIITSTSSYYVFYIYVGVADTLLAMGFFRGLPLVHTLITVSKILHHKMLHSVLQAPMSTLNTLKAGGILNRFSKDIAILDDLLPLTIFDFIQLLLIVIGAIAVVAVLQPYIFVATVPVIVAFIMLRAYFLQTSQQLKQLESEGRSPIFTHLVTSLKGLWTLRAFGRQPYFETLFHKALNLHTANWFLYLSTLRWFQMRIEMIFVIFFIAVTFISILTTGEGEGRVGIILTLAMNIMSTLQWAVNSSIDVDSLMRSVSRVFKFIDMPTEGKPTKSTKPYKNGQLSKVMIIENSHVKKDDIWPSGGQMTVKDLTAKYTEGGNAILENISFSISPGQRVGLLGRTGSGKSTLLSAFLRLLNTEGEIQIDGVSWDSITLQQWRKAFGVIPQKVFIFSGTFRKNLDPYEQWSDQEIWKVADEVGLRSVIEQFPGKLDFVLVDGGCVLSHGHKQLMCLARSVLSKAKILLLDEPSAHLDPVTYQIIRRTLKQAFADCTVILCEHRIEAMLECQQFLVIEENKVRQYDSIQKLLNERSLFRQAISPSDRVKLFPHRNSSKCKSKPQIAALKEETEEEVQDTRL

For `COc1ncc(C)cc1-c1cc(C)cc(NC(=O)C2(c3ccc4c(c3)OC(F)(F)O4)CC2)n1` [Compound 87], the pEC50 was > 5.70 and the Emax is > 100%.
In the same order, the values of `COc1ncc(C)cc1-c1nc(NC(=O)C2(c3ccc4c(c3)OC(F)(F)O4)CC2)cc(C)c1C` [Compound 88] are > 5.70 and > 100%.
In the same order, the values of `COc1cc(C)c(-c2nc(NC(=O)C3(c4ccc5c(c4)OC(F)(F)O5)CC3)cc(C)c2C)cn1` [Compound 89] are > 5.70 and > 100%.
`Cc1cc(=O)[nH]cc1-c1nc(NC(=O)C2(c3ccc4c(c3)OC(F)(F)O4)CC2)cc(C)c1C` [Compound 90]: the pEC50 was > 5.70 and the Emax was > 100%.
In the same order, the values of `Cc1c[nH]c(=O)c(-c2nc(NC(=O)C3(c4ccc5c(c4)OC(F)(F)O5)CC3)cc(C)c2C)c1` [Compound 91] are > 5.70 and > 100%.
Consider `Cc1cc(NC(=O)C2(c3ccc4c(c3)OC(F)(F)O4)CC2)nc(-c2cc(C)c[nH]c2=O)c1` [Compound 92], for which the pEC50 was > 5.70 and the Emax was in the range of 50 to 100%.
Taken in the same sequence, the figures for `COc1ncccc1-c1cccc(NC(=O)C2(c3ccc4c(c3)OCO4)CC2)n1` [Compound 93] were > 5.70 and > 100%.
Turning to `COc1ccc(-c2cccc(NC(=O)C3(c4ccc5c(c4)OCO5)CC3)n2)cn1` [Compound 94], the negative logarithm of the EC50 (pEC50) was 5.30 to 5.70 and the Emax is > 100%.
Taken in the same sequence, the figures for `Cc1ccc(NC(=O)C2(c3ccc4c(c3)OC(F)(F)O4)CC2)nc1-c1ccc(=O)n(CCS(C)(=O)=O)c1` [Compound 95] were > 5.70 and > 100%.
In the same order, the values of `Cc1cc(NC(=O)C2(c3ccc4c(c3)OC(F)(F)O4)CC2)nc(-c2ccc(=O)[nH]c2)c1C#N` [Compound 96] are > 5.70 and > 100%.
For `Cc1ccc(NC(=O)C2(c3ccc4c(c3)OC(F)(F)O4)CC2)nc1-c1ccc(=O)n(CC#N)c1` [Compound 97], the pEC50 was > 5.70 and the Emax lay in the range of 50 to 100%.
In the same order, the values of `Cc1cc(NC(=O)C2(c3ccc4c(c3)OCC4)CC2)nc(-c2ccc(=O)[nH]c2)c1` [Compound 98] are > 5.70 and 50 to 100%.
On to `Cc1ccc(NC(=O)C2(c3ccc4c(c3)OCC4)CC2)nc1-c1ccc(=O)[nH]c1` [Compound 99], for which the pEC50 was > 5.70 and the Emax was > 100%.
In the same order, the values of `COc1ncccc1-c1nc(NC(=O)C2(c3ccc4c(c3)CCO4)CC2)cc(C)c1C` [Compound 100] are > 5.70 and > 100%.
`COc1ccc(-c2nc(NC(=O)C3(c4ccc5c(c4)CCO5)CC3)cc(C)c2C)cn1` [Compound 101]: the pEC50 is > 5.70 and the Emax is > 100%.
For `COc1cc(-c2nc(NC(=O)C3(c4ccc5c(c4)CCO5)CC3)cc(C)c2C)ccn1` [Compound 102], the pEC50 was > 5.70 and the Emax fell in the range of 50 to 100%.
For `COc1ccc(-c2nc(NC(=O)C3(c4ccc5c(c4)OC(F)(F)O5)CC3)cc(C)c2C)c(C)n1` [Compound 103], the pEC50 is > 5.70 and the Emax is > 100%.
On to `COc1ncc(-c2nc(NC(=O)C3(c4ccc5c(c4)OC(F)(F)O5)CC3)cc(C)c2C)cc1C` [Compound 104], for which the pEC50 is > 5.70 and the Emax was 50 to 100%.
In the same order, the values of `COc1cc(-c2nc(NC(=O)C3(c4ccc5c(c4)OC(F)(F)O5)CC3)ccc2C)cc(C)n1` [Compound 105] are > 5.70 and 50 to 100%.
Take `Cc1cc(-c2nc(NC(=O)C3(c4ccc5c(c4)OC(F)(F)O5)CC3)ccc2C)cc(=O)[nH]1` [Compound 106]: the pEC50 was > 5.70 and the Emax was > 100%.
Take `Cc1cc(NC(=O)C2(c3ccc4c(c3)OC(F)(F)O4)CC2)nc(-c2c[nH]c(=O)c(C)c2)c1` [Compound 107]: the pEC50 was > 5.70 and the Emax was > 100%.
